Measured values reported in patent publication US12215106B2, “Pharmaceutical compounds and therapeutic methods” (RUTGERS, THE STATE UNIVERSITY OF NEW JERSEY, priority 2018, dated 2025).

Key:
P-gp = assay: Bi-directional Caco-2 transport assay; format: in vitro ADME; settings: human, Caco-2; efflux ratio >2: potential P-gp substrate; read-out: Efflux Ratio (B-A/A-B)
Protocol: (§1) The objective of the study is to evaluate test compounds as substrates for efflux transporter using Caco-2 cell line. To assess the functionality of P-glycoprotein (P-gp), loperamide was run as a positive control (Apical and basolateral HBSS pH 7.4).
(§2) 5 mM DMSO stock of test compounds and loperamide was diluted 1000-folds in HBSS having 0.1% DMSO to prepare concentrations of 5 μM.
(§3) Caco-2 cells were grown in DMEM (20% FBS) until 85-90% confluence. After attaining required confluence, cells were trypsinized and seeded into 24 well millcell plates at a density of 0.6×10^5 cells/insert. The plates were maintained for 21 days at 37° C. in CO2 incubator with change of medium every alternative day. Monolayer integrity was monitored by measuring Trans-epithelial electrical resistance (TEER) from day 15.
(§4) Caco-2 cell monolayer was washed twice with HBSS and incubated for 40 min in CO2 incubator. TEER values were measured and wells showing TEER values above 230 ohms·cm^2 were taken for experiments. The study was performed in loperamide and test compounds by adding 400 μL of loperamide prepared in HBSS in apical (A-B transport) followed by addition of 800 μL of HBSS on basal side and for B-A transport 800 μL of loperamide prepared in HBSS was dosed in basal followed by addition of 400 μL HBSS on apical side. At selected time points (0, 15, 30, 60 and 90 mins) an aliquot of 50 μL was collected from the receiver compartment for determination of test compound concentrations. The volume withdrawn was replaced immediately with HBSS buffer. TEER was measured at the end to the experiment to confirm any damage of monolayer while performing experiment. Those wells with TEER not meeting the criteria were excluded from the study.
(§5) A 50 μL of test compound samples collected at respective time points and submitted for LC-MS/MS analysis.
(§6) The apparent permeability (Papp) (A−B & B−A) of test compounds and positive control was calculated using the following formula: Papp=dQ/dt/A·Co where, dQ/dt=linear slope of test compound concentration in receptor chamber with time (0, 15, 30, 60 and 90 min) after correcting for dilution; A=area of the filter (0.7 cm^2); and Co=initial concentration of compound in the donor compartment.
(§7) Efflux ratio (RE) was calculated using the following equation: RE=PB/A/PA/B where PB/A and PA/B represent the apparent permeability of test compound from the basal to apical and apical to basal side of cell monolayer.
(§8) Recovery represents: (amount of the compound recovered from donor at end of incubation+cumulative amount of compound in acceptor at end of incubation+amount of the compound in cell lysate or assay well)/amount of compound in donor solution at time zero*100
(§9) Compounds are classified based on Papp values as follows:
(§10) A compound having efflux ratio of >2 is considered as having potential as a P-gp substrate.

[1] = Bi-directional Caco-2 transport assay; format: in vitro ADME; settings: human, Caco-2, 5 μM
Protocol: as §1, §2, §3, §4, §5, §6, §7, §8, §9, §10

mice plasma = assay: in vitro; format: in vitro ADME; settings: mouse, plasma, 4 h, 5 μM
Protocol: (§11) The objective of this study was to evaluate protein binding test compounds in mice plasma. This was accomplished by spiking the test compounds at a concentration of 5 μM into mice plasma and dialyzing against buffer until equilibrium is achieved (4 hours). Analyte area ratios of the test compounds in plasma and buffer were determined to calculate unbound and bound percentages of compound to the plasma proteins.
(§12) Phosphate buffered saline pack (0.1 M sodium phosphate and 0.15 M sodium chloride, pH 7.2) was dissolved in 500 mL of deionized water and pH was adjusted to 7.4 with 0.5 N NaOH.
(§13) 1 mM stock solutions were prepared in DMSO and diluted 200-folds in mice plasma to prepare a concentration of 5 μM. The final DMSO concentration in plasma was 0.5%.
(§14) Rapid equilibrium dialysis was performed with a rapid equilibrium dialysis (RED) device containing dialysis membrane with a molecular weight cut-off of 8,000 Daltons. Each dialysis insert contains two chambers. The red chamber is for plasma while the white chamber is for buffer.
(§15) A 200 μL aliquot of warfarin and test compound at 5 (triplicates) were separately added to the plasma chamber and 350 μL of phosphate buffer saline (pH 7.4) was added to the buffer chamber of the inserts. After sealing the RED device with an adhesive film, dialysis was performed in incubator at 37° C. with shaking at 100 RPM for 4 hours.
(§16) A 50 μL aliquot of warfarin and test compounds were added to four 0.5 mL microfuse tubes. Two aliquots were frozen immediately (0 minute sample). The other two aliquots were incubated at 37° C. for 4 hours along with the RED device.
(§17) Following dialysis, an aliquot of 50 μL was removed from each well (both plasma and buffer side) and diluted with equal volume of opposite matrix (dialyzed with the other matrix) to nullify the matrix effect. Similarly, 50 μL of buffer was added to recovery and stability samples. An aliquot of 100 μL was submitted for LCMS/MS analysis.
(§18) A 25 μL aliquot of warfarin and test compounds were crashed with 100 μL of acetonitrile containing internal standard (glipizide) and vortexed for 5 minutes. The samples were centrifuged at 4000 RPM at 4° C. for 10 min and 100 μL of supernatant was submitted for LC-MS/MS analysis. Samples were monitored for parent compound in MRM mode using LC-MS/MS.
(§19) The peak area ratios (analyte versus internal standard) obtained were used to determine the fraction of compound bound to plasma proteins.

in vitro = in vitro ADME, mice; settings: mouse; for fraction unbound at 4 h, 5 μM: plasma
Protocol: as §11, §12, §13, §14, §15, §16, §17, §18, §19

CN(C)C(=O)C(CCN1CCC(O)(c2ccc(Cl)cc2)CC1)(c1ccccc1)c1ccccc1 [Loperamide, reference compound]
efflux ratio at 90 min, 5 μM (P-gp): 5.2
Papp A→B at 90 min, 5 μM ([1]; HBSS pH 7.4, apical to basal, read-out: Papp (A-B)): 1.6 ± 0.2 ×10⁻⁶ cm/s
Papp B→A at 90 min, 5 μM ([1]; HBSS pH 7.4, basal to apical, read-out: Papp (B-A)): 8.4 ± 1.2 ×10⁻⁶ cm/s

CC(=O)CC(c1ccccc1)c1c(O)c2ccccc2oc1=O (stereo not drawn) [Warfarin, reference compound]
% compound remaining at 4 hrs (mice plasma): 94%
recovery at 4 h, 5 µM (in vitro; Plasma, pH 7.4): 109%
fraction unbound at 4 h, 5 μM (in vitro; pH 7.4, % Bound Mean ± SD): 0.069
fraction unbound at 4 h, 5 μM (in vitro; pH 7.4, % Bound R1): 0.071
fraction unbound at 4 h, 5 μM (in vitro; pH 7.4, % Bound R2): 0.075
fraction unbound at 4 h, 5 μM (in vitro; pH 7.4, % Bound R3): 0.062
